The values that follow are results of earlier work, collected in US20050048543A1 (priority 2003, published 2005).

Data set [1] concerns patients with mild to moderate AD. The settings on record: galantamine therapy in patients.
The test system of data set [2] is AD patients.

In the case of `COc1ccc2c3c1O[C@H]1C[C@@H](O)C=C[C@@]31CCN(C)C2` [galantamine], in data set [1], the “most common side effects” value was “nausea, vomiting, diarrhea, dizziness and anorexia”.
`Nc1c2c(nc3ccccc13)CCCC2` [tacrine]: the “response to treatment in presence of the ApoE4 polymorphism” value in data set [2] is “reduced response to treatment”.
